Laboratory results taken from paper PMC2361347 (British Journal of Cancer, 2006).
Read-outs that look alike come from different tables or passages of the source.

How the values were obtained:
[1] = tested on: newly diagnosed patients in the chronic phase of CML; conditions: cited from earlier work; for annual rate of progression (resulting in death): IRIS study
[2] = tested on: Ba/F3 cells transfected to express Bcr-Abl Wild-type p210+IL-3; assay: cells; conditions: Mus musculus, BaF3, read-out: Proliferation IC50
[3] = tested on: Ba/F3 cells transfected to express Bcr-Abl Wild-type p210; assay: cells; conditions: Mus musculus, BaF3, read-out: Proliferation IC50
[4] = tested on: Ba/F3 cells transfected to express Bcr-Abl M237I (p185); assay: cells; conditions: Mus musculus, BaF3, read-out: Proliferation IC50
[5] = tested on: imatinib-resistant BCR-ABL mutants; conditions: number of mutants / mutants tested; Table 1
T315I mutant = conditions: Table 1
[6] = tested on: Ba/F3 cells transfected to express Bcr-Abl L248V (p185); assay: cells; conditions: Mus musculus, BaF3, read-out: Proliferation IC50
[7] = tested on: Ba/F3 cells transfected to express Bcr-Abl G250A (p185); assay: cells; conditions: Mus musculus, BaF3, read-out: Proliferation IC50
[8] = tested on: Ba/F3 cells transfected to express Bcr-Abl G250E (p185); assay: cells; conditions: Mus musculus, BaF3, read-out: Proliferation IC50
[9] = tested on: Ba/F3 cells transfected to express Bcr-Abl G250V (p185); assay: cells; conditions: Mus musculus, BaF3, read-out: Proliferation IC50
[10] = tested on: Ba/F3 cells transfected to express Bcr-Abl Y253H (p185); assay: cells; conditions: Mus musculus, BaF3, read-out: Proliferation IC50
[11] = tested on: Ba/F3 cells transfected to express Bcr-Abl E255D (p185); assay: cells; conditions: Mus musculus, BaF3, read-out: Proliferation IC50
[12] = tested on: Ba/F3 cells transfected to express Bcr-Abl E255K (p185); assay: cells; conditions: Mus musculus, BaF3, read-out: Proliferation IC50
[13] = tested on: Ba/F3 cells transfected to express Bcr-Abl E255K (p210); assay: cells; conditions: Mus musculus, BaF3, read-out: Proliferation IC50
[14] = tested on: Ba/F3 cells transfected to express Bcr-Abl E255V (p210); assay: cells; conditions: Mus musculus, BaF3, read-out: Proliferation IC50
[15] = tested on: Ba/F3 cells transfected to express Bcr-Abl E275K (p185); assay: cells; conditions: Mus musculus, BaF3, read-out: Proliferation IC50
[16] = tested on: Ba/F3 cells transfected to express Bcr-Abl E281K (p185); assay: cells; conditions: Mus musculus, BaF3, read-out: Proliferation IC50
[17] = tested on: Ba/F3 cells transfected to express Bcr-Abl K285N (p185); assay: cells; conditions: Mus musculus, BaF3, read-out: Proliferation IC50
[18] = tested on: Ba/F3 cells transfected to express Bcr-Abl E292K (p210); assay: cells; conditions: Mus musculus, BaF3, read-out: Proliferation IC50
[19] = tested on: Ba/F3 cells transfected to express Bcr-Abl F311V (p185); assay: cells; conditions: Mus musculus, BaF3, read-out: Proliferation IC50
[20] = tested on: Ba/F3 cells transfected to express Bcr-Abl T315I (p210); assay: cells; conditions: Mus musculus, BaF3, read-out: Proliferation IC50
[21] = tested on: Ba/F3 cells transfected to express Bcr-Abl F317C (p185); assay: cells; conditions: Mus musculus, BaF3, read-out: Proliferation IC50
[22] = tested on: Ba/F3 cells transfected to express Bcr-Abl F317L (p210); assay: cells; conditions: Mus musculus, BaF3, read-out: Proliferation IC50
[23] = tested on: Ba/F3 cells transfected to express Bcr-Abl F317V (p185); assay: cells; conditions: Mus musculus, BaF3, read-out: Proliferation IC50
[24] = tested on: Ba/F3 cells transfected to express Bcr-Abl E355A (p185); assay: cells; conditions: Mus musculus, BaF3, read-out: Proliferation IC50
[25] = tested on: Ba/F3 cells transfected to express Bcr-Abl E355G (p185); assay: cells; conditions: Mus musculus, BaF3, read-out: Proliferation IC50
[26] = tested on: Ba/F3 cells transfected to express Bcr-Abl F359C (p185); assay: cells; conditions: Mus musculus, BaF3, read-out: Proliferation IC50
[27] = tested on: Ba/F3 cells transfected to express Bcr-Abl F359V (p185); assay: cells; conditions: Mus musculus, BaF3, read-out: Proliferation IC50
[28] = tested on: Ba/F3 cells transfected to express Bcr-Abl A380S (p185); assay: cells; conditions: Mus musculus, BaF3, read-out: Proliferation IC50
[29] = tested on: Ba/F3 cells transfected to express Bcr-Abl L387F (p185); assay: cells; conditions: Mus musculus, BaF3, read-out: Proliferation IC50
[30] = tested on: Ba/F3 cells transfected to express Bcr-Abl M388L (p185); assay: cells; conditions: Mus musculus, BaF3, read-out: Proliferation IC50
[31] = tested on: Ba/F3 cells transfected to express Bcr-Abl F486S (p210); assay: cells; conditions: Mus musculus, BaF3, read-out: Proliferation IC50
KBM5 = tested on: KBM5; set-up: method as in Golemovic et al, 2005; conditions: KBM5 cell line; ref Golemovic et al, 2005; cited from earlier work
KBM7 = tested on: KBM7; set-up: method as in Golemovic et al, 2005; conditions: KBM7 cell line; ref Golemovic et al, 2005; cited from earlier work
[32] = set-up: method as in Kantarjian et al, 2006; conditions: patients receiving 400 mg b.i.d.; ref Kantarjian et al, 2006; cited from earlier work
[33] = tested on: imatinib-resistant CML mouse models; set-up: method as in Weisberg et al, 2005; conditions: ref Weisberg et al, 2005; cited from earlier work
[34] = tested on: imatinib-resistant CML patients and Ph+ ALL patients; conditions: cited from earlier work; for CML patients who have responded: early-phase clinical findings
[35] = tested on: mice injected with BCR-ABL-transformed haematopoietic cell lines or primary marrow cells; conditions: ref Weisberg et al, 2005; cited from earlier work
[36] = newly diagnosed chronic-phase patients, ref Simonsson, 2005
[37] = accelerated phase CML patients, ref Kantarjian et al, 2006
[38] = blast-phase CML patients, ref Kantarjian et al, 2006
[39] = chronic phase CML patients, ref Kantarjian et al, 2006

## Cc1ccc(NC(=O)c2ccc(CN3CCN(C)CC3)cc2)cc1Nc1nccc(-c2cccnc2)n1 [Imatinib]
[1]; after 1 year of therapy
  annual rate of progression (resulting in death): 3.4%
[1]; after 2 years of therapy
  annual rate of progression (resulting in death): 7.5%
[1]; after 3 years of therapy
  annual rate of progression (resulting in death): 4.8%
[1]; after 4 years of therapy
  annual rate of progression (resulting in death): 1.5%
[1]; [36]
  complete cytogenetic responses: 86%
  complete haematologic remissions: 98%

## Cc1cn(-c2cc(NC(=O)c3ccc(C)c(Nc4nccc(-c5cccnc5)n4)c3)cc(C(F)(F)F)c2)cn1 [AMN107]
[2]
  IC50: > 10000 nM
[3]
  IC50: 25 ± 1 nM
[4]
  IC50: 43 ± 8.7 nM
[5]
  imatinib-resistant BCR-ABL mutants against which activity is maintained: 32/33
T315I mutant
  activity against the T315I mutant: no significant activity
[6]
  IC50: 102 ± 13 nM
[7]
  IC50: 65 ± 5.6 nM
[8]
  IC50: 145 ± 32 nM
[9]
  IC50: 19 ± 1.4 nM
[10]
  IC50: 700 ± 116 nM
[11]
  IC50: 27 ± 3.1 nM
[12]
  IC50: 308 ± 42 nM
[13]
  IC50: 548 ± 72 nM
[14]
  IC50: 791 ± 67 nM
[15]
  IC50: 44 ± 17.1 nM
[16]
  IC50: 40 ± 9.8 nM
[17]
  IC50: 57 ± 12 nM
[18]
  IC50: 81 ± 8 nM
[19]
  IC50: 155 ± 31 nM
[20]
  IC50: > 10000 nM
[21]
  IC50: 20 ± 3.1 nM
[22]
  IC50: 91 ± 6.5 nM
[23]
  IC50: 28 ± 4 nM
[24]
  IC50: 35 ± 6.7 nM
[25]
  IC50: 47 ± 8 nM
[26]
  IC50: 258 ± 61 nM
[27]
  IC50: 161 ± 61 nM
[28]
  IC50: 164 ± 27 nM
[29]
  IC50: 46 ± 7.2 nM
[30]
  IC50: 18 ± 2.6 nM
[31]
  IC50: 75 ± 7 nM
KBM5
  times more potent than imatinib: 43 times
KBM7
  times more potent than imatinib: 60 times
[32]
  apparent half-life: 15 h
  mean peak plasma level: 3.6 µM
  mean trough plasma level: 1.7 µM
[33]
  survival: prolong survival
[34]; Phase I, 50–1200 mg day−1 for up to 385 days, ref Kantarjian et al, 2006
  maximum tolerated dose: 600 mg b.i.d.
[34]; [37]
  cytogenetic responses: 48%
  haematological responses: 72%
[34]; [38]
  cytogenetic responses: 27%
  haematological responses: 39%
[34]; [39]
  cytogenetic responses: 53%
  haematological responses: 92%
[34]; early, chronic-phase patients
  CML patients who have responded: over 90%
[34]; of 13 Ph+ ALL patients, ref Kantarjian et al, 2006
  imatinib-resistant Ph+ ALL patients who responded: Two
[34]; patients with advanced disease
  CML patients who have responded: Greater than 70%
[35]
  survival of mice: prolong the survival
